Experimental data reported in US9676771B2, “Compounds for inhibiting drug-resistant strains of HIV-1 integrase” (priority 2013, dated 2017).
Like-named read-outs stand apart in the source and are kept apart here.

What was measured:
HIV-1 integrase = HIV-1 integrase (Human immunodeficiency virus type 1 group M subtype B, UniProt P12497); test: biochemical; format: biochemical
Procedure: In Vitro Integrase Assay.
Integrase reactions were carried out by adding drugs or an equivalent volume of 100% dimethyl sulfoxide (DMSO; used as the drug solvent) to a mixture of 20 nM DNA and 400 nM integrase in 50 mM morpholinepropanesulfonic acid (pH 7.2), 7.5 mM MgCl2, and 14 mM 2-mercaptoethanol. Reactions were performed at 37° C. for 2 h and quenched by the addition of an equal volume of loading buffer (formamide containing 1% sodium dodecyl sulfate, 0.25% bromophenol blue, and xylene cyanol). […] Dried gels were visualized using a Typhoon 8600 (GE Healthcare, Piscataway, N.J.). Densitometric analyses were performed using ImageQuant 5.1 software from GE Healthcare.

in vitro = format: cell-based, human; settings: human, 50% reduction in the level of ATP in HOS cells
Procedure: Cellular Cytotoxicity Assay.
On the day of the screen, cells were treated with compounds at the appropriate concentration range chosen and incubated at 37° C. for 48 hrs. Cytotoxicity was measured by monitoring ATP levels via a luciferase reporter assay. Cells were lysed in 50 μL cell lysis buffer (PerkinElmer, Waltham, Mass.) and shaken at 700 rpm at room temperature for 5 mins After the addition of 50 μL of ATPlite buffer (PerkinElmer) directly onto the lysed cells and shaking at 700 rpm at room temperature for 5 mins, ATP levels were monitored by measuring luciferase activity using a microplate reader. Activity was normalized to cytotoxicity in the absence of target compounds. KaleidaGraph (Synergy Software, Reading, Pa.) was used to perform regression analysis on the data. CC50 values were determined from the fit model.

[1] = system: HIV-1 constructs containing wild-type IN; test: microbe, parasite or virus in culture; format: cell-based; settings: for EC50: Human immunodeficiency virus 1
Text: (§1) Single-Round HIV-1 Infectivity Assay.
(§2) Human embryonyl kidney cell culture cell line 293 was acquired from the American type Culture Collection (ATCC).
(§3) The virus-containing supernatants were then harvested, clarified by low-speed centrifugation, filtrated, and diluted for preparation in infection assays. […] Activity was normalized to infectivity in the absence of target compounds. KaleidaGraph (Synergy Software, Reading, Pa.) was used to perform regression analysis on the data. EC50 values were determined from the fit model.

[2] = system: HIV-1 constructs containing mutant IN G140S-Q148H; test: microbe, parasite or virus in culture; format: cell-based; settings: for EC50: Human immunodeficiency virus 1, Table 3, G140S-Q148H double mutant, read-out: EC50 (nM, IN Mutants) SH
Text: as §1, §2, §3
(§4) pNLNgoMIVR^−ΔEnv.LUC has been described previously (Zhao et al. 2008). The integrase codon reading frame was removed from pNLNgoMIVR^−ΔEnv LUC (between KpnI and SalI sites) and placed between the KpnI and SalI sites of pBluescript II KS+. Using that construct as the wild-type template, we prepared the following HIV-1 Integrase-resistant mutants via the QuikChange II XL (Stratagene, La Jolla, Calif.) site-directed mutagenesis protocol: H51Y, T66I, E92Q, G118R, Y143R, Q148H, Q148K, N155H, R263K, G140S+Q148H, G140A+Q148K, E138K+Q148K, and H51Y+R263K. The following sense with cognate antisense (not shown) oligonucleotides (Integrated DNA Technologies, Coralville, Iowa) were used in the mutagenesis: H51Y, 5′-[…]-3; T66I, 5′-[…]-3′; E92Q, 5′-[…]-3′; G118R, 5′-[…]-3′; E138K, 5′-[…]-3; G140A, 5′-[…]-3; G140S, 5′-[…]-3′; Y143R, 5′-[…]-3′; Q148H, 5′-[…]-3′; Q148K, 5′-[…]-3; N155H, 5′-[…]-3′; R263K 5′-[…]-3′. The double mutation G140S+Q148H was constructed by using the previously generated Q148H mutant and the appropriate oligonucleotide for the 2nd mutation, G140S. The double mutation G140A+Q148K was made by using the Q148K mutant and the appropriate oligonucleotide for the 2nd mutation, G140A. The double mutation E138K+Q148K was made by using the Q148K mutant and the appropriate oligonucleotide for the 2nd mutation, E138K. The double mutation H51Y+R263K was constructed by using the previously generated H51Y mutant and the appropriate oligonucleotides for the 2nd mutation, R263K. The DNA sequence of each construct was verified independently by DNA sequence determination. […] These DNA sequences were additionally checked independently by DNA sequence determination.

[3] = system: HIV-1 constructs containing mutant IN N155H; test: microbe, parasite or virus in culture; format: cell-based; settings: for EC50: Human immunodeficiency virus 1
Text: as §1, §2, §3, §4

[4] = system: HIV-1 constructs containing mutant IN Y143R; test: microbe, parasite or virus in culture; format: cell-based; settings: for EC50: Human immunodeficiency virus 1
Text: as §1, §2, §3, §4

[5] = Table 1, 3′-processing, read-out: IC50 Values 3′-Processing
[6] = Table 1, strand transfer, read-out: IC50 Values Strand transfer
[7] = Table 2, cells infected with lentiviral vector harboring WT IN, read-out: EC50
[8] = Table 3, WT IN, read-out: EC50 (nM, WT)
[9] = Table 3, read-out: EC50 (nM, IN Mutants) N155H
[10] = Table 3, read-out: EC50 (nM, IN Mutants) Y143R
[11] = Table 4, 3′-processing, read-out: IC50 (3^+-Processing)
[12] = Table 4, strand transfer, read-out: IC50 (Strand Transfer)

SMILES | IC50 (HIV-1 integrase; [5]) [µM] | IC50 (HIV-1 integrase; [6]) [µM] | CC50 (in vitro; Table 3) [nM] | Si (selectivity index) [1] | EC50 [1, 8] [nM] | EC50 [2] [nM] | EC50 [3, 9] [nM] | EC50 [4, 10] [nM] | IC50 (HIV-1 integrase; [11]) [µM] | IC50 (HIV-1 integrase; [12]) [µM] | Si (selectivity index) ([1]; Table 3, ratio of CC50 to EC50) | further results
O=C(NCc1ccc(F)c(Cl)c1)c1c(O)c2cccnc2n(O)c1=O [XZ365, N-(3-chloro-4-fluorobenzyl)-1,4-dihydroxy-2-oxo-1,2-dihydro-1,8-naphthyridine-3-carboxamide] | 4.7 ± 0.7 | 0.027 ± 0.006 | 102000 ± 17800 | 2,920 | 34.9 ± 12.3 | 489 ± 61.8 | 148 ± 8.3 | 53.6 ± 9.2 |  |  |  | CC50 (in vitro; Table 2): 102000 nM; SI [1]: 2,911; EC50 [1, 7]: 35 nM; Integrase Mutants SH (G140S-Q148H), fold-change in EC50 relative to WT [2]: 14 x; Integrase Mutants N155H, fold-change in EC50 relative to WT [3]: 4 x; Integrase Mutants Y143R, fold-change in EC50 relative to WT [4]: 2 x
O=C(NCc1ccc(F)c(F)c1)c1c(O)c2cccnc2n(O)c1=O [XZ367, N-(3,4-difluorobenzyl)-1,4-dihydroxy-2-oxo-1,2-dihydro-1,8-naphthyridine-3-carboxamide] | 3.6 ± 0.6 | 0.04 ± 0.01 | 192000 ± 19000 | 9,585 | 20 ± 6.2 | 507 ± 125 | 189 ± 70.1 | 44.5 ± 12.2 |  |  |  | CC50 (in vitro; Table 2): 192000 nM; SI [1]: 9,585; EC50 [1, 7]: 20 nM; Integrase Mutants SH (G140S-Q148H), fold-change in EC50 relative to WT [2]: 25 x; Integrase Mutants N155H, fold-change in EC50 relative to WT [3]: 9 x; Integrase Mutants Y143R, fold-change in EC50 relative to WT [4]: 2 x
CN(C)c1c(C(=O)NCc2ccc(F)cc2F)c(=O)n(O)c2ncccc12 [XZ372, N-(2,4-difluorobenzyl)-4-(dimethylamino)-1-hydroxy-2-oxo-1,2-dihydro-1,8-naphthyridine-3-carboxamide] |  |  | 13000 ± 1800 |  | 268 ± 8.03 | 6800 ± 0.4 | 2300 ± 700 | 273 ± 51.7 | 21 ± 2 | 0.087 ± 0.012 | 49 | 
O=C(NCc1ccc(F)cc1F)c1c(N2CCOCC2)c2cccnc2n(O)c1=O [XZ373, N-(2,4-difluorobenzyl)-1-hydroxy-4-morpholino-2-oxo-1,2-dihydro-1,8-naphthyridine-3-carboxamide] |  |  | 8400 ± 3200 |  | 1200 ± 260 | 6920 ± 2 | 3730 ± 920 | 1800 ± 870 | 77 ± 12 | 0.079 ± 0.013 | 7 | 
O=C(NCc1ccc(F)cc1F)c1c(NC2CCCCCC2)c2cccnc2n(O)c1=O [XZ376, 4-(cycloheptylamino)-N-(2,4-difluorobenzyl)-1-hydroxy-2-oxo-1,2-dihydro-1,8-naphthyridine-3-carboxamide] |  |  | 68700 ± 8700 |  | 12.2 ± 2.9 | 35 ± 11.7 | 13.7 ± 3.8 | 6.6 ± 1.7 | 13.1 ± 1.1 | 0.46 ± 0.18 | 4,804 | 
O=C(NCc1ccc(F)cc1F)c1cc2cccnc2n(O)c1=O [XZ390, N-(2,4-difluorobenzyl)-1-hydroxy-2-oxo-1,2-dihydro-1,8-naphthyridine-3-carboxamide] | 6.1 ± 0.8 | 0.041 ± 0.012 | > 250000 | >25,000 | 5.1 ± 1.9 | 438 ± 121 | 134 ± 23 | 4.9 ± 0.77 |  |  |  | 
O=C(NCc1ccc(F)cc1)c1cc2cccnc2n(O)c1=O [XZ393, N-(4-fluorobenzyl)-1-hydroxy-2-oxo-1,2-dihydro-1,8-naphthyridine-3-carboxamide] | 8.9 ± 1 | 0.016 ± 0.003 | > 250000 |  | 25.1 ± 9.4 |  | 268 ± 89 | 24.1 ± 5.3 |  |  | >9,960 | 
COC(=O)[C@@H](C)Nc1c(C(=O)NCc2ccc(F)cc2F)c(=O)n(O)c2ncccc12 [XZ395, (R)-methyl 2-((3-((2,4-difluorobenzyl)carbamoyl)-1-hydroxy-2-oxo-1,2-dihydro-1,8-naphthyridin-4-yl)amino)propanoat] |  |  | > 250000 |  | 11.3 ± 4.7 | 89.3 ± 26.3 |  | 8.1 ± 1.7 |  |  |  | 
COC(=O)CNc1c(C(=O)NCc2ccc(F)cc2F)c(=O)n(O)c2nc(OC)ccc12 [XZ407, methyl 2-((3-((2,4-difluorobenzyl)carbamoyl)-1-hydroxy-7-methoxy-2-oxo-1,2-dihydro-1,8-naphthyridin-4-yl)amino)acetate] |  |  |  |  |  |  |  |  | 20 ± 2 | 0.042 ± 0.005 |  | CC50 (in vitro; Table 5): 11700 ± 3100 nM; EC50 ([1]; Table 5, WT IN, read-out: EC50 (nM, WT)): 32 ± 13 nM; SI ([1]; Table 5, ratio of CC50 to EC50): 366; EC50 ([3]; Table 5, read-out: EC50 (nM, IN Mutants) N155H): 31300 ± 320 nM; EC50 ([4]; Table 5, read-out: EC50 (nM, IN Mutants) Y143R): 51.5 ± 12.6 nM
Nc1c(C(=O)NCc2ccc(F)cc2F)c(=O)n(O)c2ncc(CCCC3CCCCC3)cc12 [XZ428, 4-Amino-6-(3-cyclohexylpropyl)-N-(2,4-difluorobenzyl)-1-hydroxy-2-oxo-1,2-dihydro-1,8-naphthyridine-3-carboxamide] |  |  |  |  |  |  |  |  |  |  |  | IC50 (HIV-1 integrase; Table 7, 3′-processing, read-out: IC50 (μM) 3′-P): 289 ± 49 µM; IC50 (HIV-1 integrase; Table 7, strand transfer, read-out: IC50 (μM) ST): 3.28 ± 0.468 µM; CC50 (in vitro; Table 8): 27400 nM; EC50 ([1]; Table 8, WT IN, read-out: EC50 (nM, WT)): 53.4 nM; EC50 ([3]; Table 8, read-out: EC50 (nM, IN mutants) N155H): 146 nM; EC50 ([4]; Table 8, read-out: EC50 (nM, IN mutants) Y143R): 112 nM
